From patent US8710198B2, “Caprazene as a novel compound and derivatives thereof, and caprazol as a novel compound and derivatives thereof” (Meiji Seika Pharma Co., Ltd., priority 2003, dated 2014)

Experiments:
bacteria = experiment: Antibacterial activity; type: cell-based; conditions: statement in words
enzyme MraY = enzyme MraY (Escherichia coli, UniProt P0A6W3); conditions: statement in words
Micrococcus luteus FDA16 = experiment: Minimum growth inhibitory concentration on agar culture medium by serial dilution method (Japanese Society of Chemotherapy); type: cell-based
Protocol: (§1) Minimum growth inhibitory concentrations (mcg/ml) of caprazene-1′″-amide derivatives of the formula (II) against some of microorganisms were measured on an agar culture medium by a serial dilution method according to the standard method as provided by Japanese Society of Chemotherapy. For the cultivation of Mycobacterium smegmatis (one of […]), however, there was used an agar culture medium with the addition of 1% glycerine (the same applies to in the following tests).
(§2) Minimum growth inhibitory concentrations (mcg/ml) of some of the caprazene-1′″-ester derivative of the formula (III) against some of microorganisms were measured on an agar culture medium by a serial dilution method according to the standard method as provided by Japanese Society of Chemotherapy.
(§3) Minimum growth inhibitory concentrations (mcg/ml) of some of the caprazol-1′″-amide derivative of the formula (V) against a variety of microorganisms were measured on an agar medium by a serial dilution method according to the standard method as provided by Japanese Society of Chemotherapy.
as §3, with “caprazol-1′″-amide-3′″-ester” for “caprazol-1′″-amide”, “(VI)” for “(V)”
as §3, with “caprazol-3′″-ester derivative or caprazol-1′″-ester-3′″-ester” for “caprazol-1′″-amide”, “(VII)” for “(V)”
(§4) Minimum growth inhibitory concentrations (mcg/ml) of some of the derivative of the formula (VIII) against a variety of microorganisms were measured on an agar medium by a serial dilution method according to the standard method as provided by Japanese Society of Chemotherapy.

[1] = tested on: Staphylococcus aureus FDA209P; experiment: as above; type: cell-based
Protocol: as §1, §2, §3
as §4, with “of the caprazol-1′″-amide-3′″-ester derivative of” for “of the derivative of”, “the formula (VI) against a” for “the formula (VIII) against a”
as §4, with “of the caprazol-3′″-ester derivative or caprazol-1′″-ester-3′″-ester derivative of” for “of the derivative of”, “the formula (VII) against a” for “the formula (VIII) against a”
as §4

[2] = tested on: Mycobacterium smegmatis ATCC607; experiment: Minimum growth inhibitory concentration on agar culture medium with 1% glycerine by serial dilution method; type: cell-based; conditions: agar culture medium with the addition of 1% glycerine
Protocol: as §1, §2, §3
as §4, with “of the caprazol-1′″-amide-3′″-ester derivative of” for “of the derivative of”, “the formula (VI) against a” for “the formula (VIII) against a”
as §4, with “of the caprazol-3′″-ester derivative or caprazol-1′″-ester-3′″-ester derivative of” for “of the derivative of”, “the formula (VII) against a” for “the formula (VIII) against a”

[3] = tested on: Staphylococcus aureus ATCC607; experiment: Minimum growth inhibitory concentration on agar medium by serial dilution method, Table 14; type: cell-based
Protocol: as §1, §4

acid-fast bacteria = conditions: statement in words, WO 01/12643A1 / EP 1211259A1; cited from earlier work

Chain of enzyme MraY (P0A6W3 whole entry): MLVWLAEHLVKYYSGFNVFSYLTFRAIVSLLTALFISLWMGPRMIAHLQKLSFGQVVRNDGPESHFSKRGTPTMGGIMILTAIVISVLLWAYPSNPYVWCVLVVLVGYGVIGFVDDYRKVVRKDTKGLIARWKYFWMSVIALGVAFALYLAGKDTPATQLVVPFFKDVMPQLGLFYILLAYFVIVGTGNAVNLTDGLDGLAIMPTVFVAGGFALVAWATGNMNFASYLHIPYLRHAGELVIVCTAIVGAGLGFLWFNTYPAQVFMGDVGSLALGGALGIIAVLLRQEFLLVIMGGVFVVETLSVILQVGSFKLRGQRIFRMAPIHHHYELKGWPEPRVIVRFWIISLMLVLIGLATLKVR

Molecule | antibacterial activity (bacteria) | inhibitory activity against enzyme MraY (enzyme MraY) | Minimum growth inhibitory concentration (mcg/ml) against bacteria Micrococcus luteus FDA16 (Micrococcus luteus FDA16) [µg/mL] | Minimum growth inhibitory concentration (mcg/ml) against bacteria Staphylococcus aureus FDA209P [1] [µg/mL] | Minimum growth inhibitory concentration (mcg/ml) against bacteria Mycobacterium smegmatis ATCC607 [2] [µg/mL] | Minimum growth inhibitory concentration (mcg/ml) against bacteria Staphylococcus aureus ATCC607 [3] [µg/mL] | antibacterial activities against acid-fast bacteria (acid-fast bacteria)
CN1C(=O)[C@H](C(O[C@@H]2O[C@H](CN)[C@@H](O)[C@H]2O)[C@H]2O[C@@H](n3ccc(=O)[nH]c3=O)[C@H](O)[C@@H]2O)N(C)CC=C1C(=O)O (stereo partly shown) [Caprazene, caprazene] | no antibacterial activity | inhibitory activity against enzyme MraY | – | – | – | – | –
CCCCCCCCCCNC(=O)C1C(OC(=O)CCCCCCCCCC)CN(C)C(C(OC2OC(CN)C(O)C2O)C2OC(n3ccc(=O)[nH]c3=O)C(O)C2O)C(=O)N1C (stereo not shown) [Compound VI-E] | – | – | 6.25 | 12.5 | 6.25 | – | –
CCCCCCCCCCCNC(=O)C1C(OC(=O)CCCCCCCCCCC)CN(C)C(C(OC2OC(CN)C(O)C2O)C2OC(n3ccc(=O)[nH]c3=O)C(O)C2O)C(=O)N1C (stereo not shown) [Compound VI-F] | – | – | 3.13 | 12.5 | 6.25 | – | –
CCCCCCCCCCCCNC(=O)C1C(OC(=O)CCCCCCCCCCC)CN(C)C(C(OC2OC(CN)C(O)C2O)C2OC(n3ccc(=O)[nH]c3=O)C(O)C2O)C(=O)N1C (stereo not shown) [Compound VI-G, caprazol-1′″-dodecylamide-3′″-dodecanoylester derivative] | – | – | 3.13 | 25 | 6.25 | – | –
CCCCCCCCCCCC(=O)OC1CN(C)C(C(OC2OC(CN)C(O)C2O)C2OC(n3ccc(=O)[nH]c3=O)C(O)C2O)C(=O)N(C)C1C(=O)NC1CCCCCCCCCCC1 (stereo not shown) [Compound VI-Q] | – | – | 3.13 | 12.5 | 6.25 | – | –
CCCCCCCCC=CCCCCCCCCNC(=O)C1C(OC(=O)CCCCCCCCCCC)CN(C)C(C(OC2OC(CN)C(O)C2O)C2OC(n3ccc(=O)[nH]c3=O)C(O)C2O)C(=O)N1C (stereo not shown) [Compound VI-R] | – | – | 3.13 | 25 | 6.25 | – | –
CCCCCCC(=O)OC1CN(C)C(C(OC2OC(CN)C(O)C2O)C2OC(n3ccc(=O)[nH]c3=O)C(O)C2O)C(=O)N(C)C1C(=O)O (stereo not shown) [Compound VII-A] | – | – | >50 | 25 | 1.56 | – | –
CCCCCCCC(=O)OC1CN(C)C(C(OC2OC(CN)C(O)C2O)C2OC(n3ccc(=O)[nH]c3=O)C(O)C2O)C(=O)N(C)C1C(=O)O (stereo not shown) [Compound VII-B] | – | – | >50 | 12.5 | 1.56 | – | –
CCCCCCCCC(=O)OC1CN(C)C(C(OC2OC(CN)C(O)C2O)C2OC(n3ccc(=O)[nH]c3=O)C(O)C2O)C(=O)N(C)C1C(=O)O (stereo not shown) [Compound VII-C] | – | – | >50 | 12.5 | 0.78 | – | –
CCCCCCCCCC(=O)OC1CN(C)C(C(OC2OC(CN)C(O)C2O)C2OC(n3ccc(=O)[nH]c3=O)C(O)C2O)C(=O)N(C)C1C(=O)O (stereo not shown) [Compound VII-D] | – | – | 3.13 | 3.13 | 0.78 | – | –
CCCCCCCCCCC(=O)OC1CN(C)C(C(OC2OC(CN)C(O)C2O)C2OC(n3ccc(=O)[nH]c3=O)C(O)C2O)C(=O)N(C)C1C(=O)O (stereo not shown) [Compound VII-E] | – | – | 1.56 | 1.56 | 0.39 | – | –
CCCCCCCCCCCC(=O)OC1CN(C)C(C(OC2OC(CN)C(O)C2O)C2OC(n3ccc(=O)[nH]c3=O)C(O)C2O)C(=O)N(C)C1C(=O)O (stereo not shown) [Compound VII-F, caprazol-3′″-dodecanoyl Ester Derivative] | – | – | 3.13 | 0.78 | 0.78 | – | –
CCCCCCCCCCCC(=O)OC1CN(C)C(C(OC2OC(CN)C(O)C2O)C2OC(n3ccc(=O)[nH]c3=O)C(O)C2O)C(=O)N(C)C1C(=O)OC (stereo not shown) [Compound VII-G, caprazol-1′″-methyl-ester-3′″-dodecanoyl-ester Derivative] | – | – | >100 | >100 | 50 | – | –
CCCCCCCCC=CCCCCCCCC(=O)OC1CN(C)C(C(OC2OC(CN)C(O)C2O)C2OC(n3ccc(=O)[nH]c3=O)C(O)C2O)C(=O)N(C)C1C(=O)O (stereo not shown) [Compound VII-R] | – | – | 3.13 | 1.56 | 6.25 | – | –
CCCCCCCCCCN1C(=O)C(C(O)CN(C)C(C(=O)NC)C(OC2OC(CN)C(O)C2O)C2OC(n3ccc(=O)[nH]c3=O)C(O)C2O)N(C)C1=O (stereo not shown) [Compound VIII-E] | – | – | 6.25 | 25 | – | 6.25 | –
CCCCCCCCCCCN1C(=O)C(C(O)CN(C)C(C(=O)NC)C(OC2OC(CN)C(O)C2O)C2OC(n3ccc(=O)[nH]c3=O)C(O)C2O)N(C)C1=O (stereo not shown) [Compound VIII-F] | – | – | 6.25 | 25 | – | 6.25 | –
CCCCCCCCCCCCN1C(=O)C(C(O)CN(C)C(C(=O)NC)C(OC2OC(CN)C(O)C2O)C2OC(n3ccc(=O)[nH]c3=O)C(O)C2O)N(C)C1=O (stereo not shown) [Compound VIII-G] | – | – | 6.25 | 25 | – | 12.5 | –
CCCCCCCCCCCCC[C@@H](CC(=O)O[C@H]1CN(C)[C@@H](C(O[C@@H]2O[C@H](CN)[C@@H](O)[C@H]2O)[C@H]2O[C@@H](n3ccc(=O)[nH]c3=O)[C@H](O)[C@@H]2O)C(=O)N(C)[C@@H]1C(=O)O)OC(=O)C[C@H](C)CC(=O)O[C@@H]1O[C@H](C)[C@@H](OC)[C@@H](OC)[C@H]1OC (stereo partly shown) [caprazamycin A] | – | – | – | – | – | – | high antibacterial activities
CCCCCCCCCCCC[C@@H](CC(=O)O[C@H]1CN(C)[C@@H]([C@H](O[C@@H]2O[C@H](CN)[C@@H](O)[C@H]2O)[C@H]2O[C@@H](n3ccc(=O)[nH]c3=O)[C@H](O)[C@@H]2O)C(=O)N(C)[C@@H]1C(=O)O)OC(=O)C[C@H](C)CC(=O)O[C@@H]1O[C@@H](C)C(OC)[C@@H](OC)[C@H]1OC (stereo partly shown) [caprazamycin C] | – | – | – | – | – | – | high antibacterial activities
CCCCCCCCCCC[C@@H](CC(=O)O[C@H]1CN(C)[C@@H](C(O[C@@H]2O[C@H](CN)[C@@H](O)[C@H]2O)[C@H]2O[C@@H](n3ccc(=O)[nH]c3=O)[C@H](O)[C@@H]2O)C(=O)N(C)[C@@H]1C(=O)O)OC(=O)C[C@H](C)CC(=O)O[C@@H]1O[C@H](C)[C@@H](OC)[C@@H](OC)[C@H]1OC (stereo partly shown) [caprazamycin E] | – | – | – | – | – | – | high antibacterial activities
CO[C@H]1[C@@H](OC)[C@H](OC(=O)C[C@@H](C)CC(=O)O[C@@H](CCCCCCCCC(C)C)CC(=O)O[C@H]2CN(C)[C@@H](C(O[C@@H]3O[C@H](CN)[C@@H](O)[C@H]3O)[C@H]3O[C@@H](n4ccc(=O)[nH]c4=O)[C@H](O)[C@@H]3O)C(=O)N(C)[C@@H]2C(=O)O)O[C@H](C)[C@H]1OC (stereo partly shown) [caprazamycin F] | – | – | – | – | – | – | high antibacterial activities
caprazamycin B | – | – | – | – | – | – | high antibacterial activities
